# Source: patent publication US20160000796A1, “PHARMACEUTICAL COMPOSITION FOR USE IN PREVENTION OR TREATMENT OF CANCER” (priority 2013, published 2016)
# Assays:
# [1] = system: HTLV-1-producing cell line, MT2; test: Cellular proliferation test (MTS assay), MT2; format: cell-based
# Protocol: (§1) HTLV-1-producing cell lines, MT2 (transformant with HTLV-1, JCRB cell No: JCRB1210) and HUT102 (ATL-derived cell line, ATCC No: TIB-162), were used.
# (§2) Each nucleoside analogue reverse transcriptase inhibitor was added to the medium for cells at a final concentration of 100 μM. Cells were seeded on a 96-well plate at a concentration of 1×10^4 cells/100 μL/well and cultured for 4 hours (Day 0), 48 hours (Day 2) or 96 hours (Day 4). A medium added DMSO (solvent control) alone was used as a control. Cellular proliferation was examined by MTS assay. Specifically, after the cells were cultured for a predetermined time, a reagent for cellular proliferation test, Aqueous One Solution Cell Proliferation (trade name, manufactured by Promega), was added to the cells. Four hours later, absorbance at 490 nm was measured. The cellular proliferation was represented by a ratio relative to that of the control (solvent control) on Day 0 that was regarded as 1.
# Abacavir was added to MT2 and HUT102 used in Example 1 at a concentration of 0 μM (DMSO was added instead of abacavir), 10 μM, 25 μM, 50 μM, 75 μM or 100 μM. The cells were seeded on a 96-well plate at a concentration of 1×10^4 cells/100 μL/well and cultured for 4 hours or 48 hours. […]
# [2] = system: ATL43T (non-virus-producing ATL cell line); test: Cellular proliferation (MTS assay), ATL43T; format: cell-based
# Protocol: as §2
# (§3) This example used HTLV-1-infected cell lines (non-virus-producing ATL cell lines): ED40515 (−), ED40515 (+), and ATL43T (all were provided by Prof. Michiyuki Maeda who produced the cells); and SYK-11L (+) (prepared in the laboratory of the inventors).
# (§4) The six types of nucleoside analogue reverse transcriptase inhibitors as used in Example 1 were used and cellular proliferation was examined in the same manner as in Example 1. […]
# HTLV-1 = test: Measurement of amount of virus (HTLV-1 P19 ELISA), MT2; format: cell-based, human T-cell leukemia virus type 1; conditions: 100 μM, Day 0, 2, 4, 7, compared among six NRTIs
# Protocol: as §1
# Each nucleoside analogue reverse transcriptase inhibitor was added to the medium for cells at a final concentration of 100 μM. Cells were seeded on a 96-well plate at a concentration of 1×10^4 cells/100 μL/well and cultured for 0 hour (Day 0), 48 hours (2 days), 96 hours (4 days) or 168 hours (7 days). At each time point, the medium was collected. The amount of virus contained in the medium collected at each time point (pg/mL) was measured by HTLV-1 P19 ELISA kit (manufactured by Zeptometrix).
# [3] = system: HOP—62 (lung cancer cell line lacking TDP1 expression); test: Cellular proliferation (MTS) of lung cancer cell line HOP—62; format: cell-based; conditions: 100, 200 or 300 μM, 72 hours
# Protocol: Lung cancer cell lines lacking TDP1 expression, HOP—62 and NCI_H522, were used. NCI_H1299, a lung cancer cell line expressing TDP1, was used as a control. HOP—62 and NCI_H522 were provided by Dr. Pommier (DNA Repair. 2014 January; 13: 1-9).
# Abacavir was added to each of the cell lines at a concentration of 0 μM (DMSO was added instead of abacavir), 100 μM, 200 μM or 300 μM. The cells were seeded on a 96-well plate at a concentration of 3×10^3 cells/100 μL/well and cultured for 4 hours or 72 hours. After the culture of a predetermined time, MTS assay was performed using a reagent for cellular proliferation, test, Aqueous One Solution Cell Proliferation (trade name, manufactured by Promega), in the same manner as in Example 1. The cellular proliferation was represented by a ratio relative to that of the control (solvent control) on Day 0 that was regarded as 100%.
# [4] = system: DT40-derived mutants each lacking a DNA repair enzyme; test: Cellular proliferation of DT40-derived mutants (CellTiter-Glo ATP method); format: cell-based, chicken; conditions: 25 μM, 48 hours
# Text: This example used wild-type DT40, which is a chicken B cell-derived cell line, and DT40-devired mutants each lacking a DNA repair enzyme. Those cell lines are available from the laboratory of Radiation Genetics, Graduate School of Medicine and Faculty of Medicine Kyoto University (see, Literatures: (1) Mol Cell Biol. 2001 April; 21 (8): 2858-66. (2) PLoS Genet. 2011 July; 7 (7): e1002148. (3) Mol Cell Biol. 2008 October; 28 (19): 6113-22. (4) J Biol Chem. 2012 Apr. 13; 287 (16): 12848-57.).
# Abacavir was added to the medium of each cell line at a final concentration of 25 μM. The cells were seeded on a 96-well plate at a concentration of 1×10^4 cells/100 μL/well and cultured for 48 hours. After the culture, cellular proliferation was determined by CellTiter-Glo Luminescent Cell Viability Assay (trade name, manufactured by Promega) in accordance with the ATP method.
# Specifically, the value on the vertical axis is −1 when the proliferation rate compared to the wild-type is 50%, and −2 when the proliferation rate compared to the wild-type is 25%.
# [5] = system: ED40515 (−) (non-virus-producing ATL cell line); test: Cellular proliferation (MTS assay), ED40515 (−); format: cell-based
# Protocol: as §2, §3, §4
# [6] = system: SYK-11L (+) (non-virus-producing ATL cell line); test: Cellular proliferation (MTS assay), SYK-11L (+); format: cell-based
# Protocol: as §2, §3, §4
structure (smiles),measurement,setting,value
"Nc1nc(NC2CC2)c2ncn([C@H]3C=C[C@@H](CO)C3)c2n1 [abacavir, (−)-(1S,4R)-4-[2-amino-6-(cyclopropylamino)-9H-purin-9-yl]-2-cyclopentene-1-methanol]",cellular proliferation (ratio relative to solvent control on Day 0),"[1]; 100 μM, Day 0, 2, 4, compared among six NRTIs",most strongly suppressed
same,"cellular proliferation, dose dependence","[1]; 10, 25, 50, 75, 100 μM, 48 hours",suppressed cellular proliferation of both cell lines in a dose-dependent manner
same,cellular proliferation,[2]; 100 μM,strong suppressive effect
same,"cellular proliferation, dose dependence","[2]; 10-100 μM, Day 0, 2, 4",suppressed cellular proliferation of all the cell lines in a dose-dependent manner
same,viral production (amount of virus in the medium),HTLV-1,most strongly suppressed
same,cellular proliferation,[3],suppressed cellular proliferation of HOP—62 and NCI_H522 lacking TDP1 expression in a concentration dependent manner
same,cellular proliferation relative to wild-type DT40 (Log2 Gene/WT),[4]; DT40 mutant lacking BRCA1,showed a suppressive effect
same,cellular proliferation relative to wild-type DT40 (Log2 Gene/WT),[4]; DT40 mutant lacking GEN1,showed a suppressive effect
same,cellular proliferation relative to wild-type DT40 (Log2 Gene/WT),[4]; DT40 mutant lacking PCNA,showed a suppressive effect
same,cellular proliferation relative to wild-type DT40 (Log2 Gene/WT),[4]; DT40 mutant lacking TDP1,showed a suppressive effect
same,cellular proliferation relative to wild-type DT40 (Log2 Gene/WT),[4]; DT40 mutant lacking XRCC2,showed a suppressive effect
same,cellular proliferation,[5]; 100 μM,strong suppressive effect
same,"cellular proliferation, dose dependence","[5]; 10-100 μM, Day 0, 2, 4",suppressed cellular proliferation of all the cell lines in a dose-dependent manner
same,cellular proliferation,[6]; 100 μM,strong suppressive effect
same,"cellular proliferation, dose dependence","[6]; 10-100 μM, Day 0, 2, 4",suppressed cellular proliferation of all the cell lines in a dose-dependent manner
